From BindingDB's records for patent US10660876 (Achillion Pharmaceuticals, 2020)

Target: Complement factor D (Homo sapiens, UniProt P00746)
Experiment: Inhibition Assay
Protocol: Human Factor D (purified from human serum, Complement Technology, Inc.) at 80 nM final concentration is incubated with test compound at various concentrations for 5 minutes at room temperature in 50 mM Tris, 1M NaCl, pH 7.5. A synthetic substrate Z-L-Lys-SBzl and DTNB (Ellman's reagent) are added to final concentrations of 100 µM each. Absorbance at 405 nm (A405) is recorded at 30 second intervals for 30 minutes using a microplate spectrophotometer. IC50 values are calculated by nonlinear regression of complement Factor D reaction rates as a function of test compound concentration.

Chain of Complement factor D (P00746 whole entry): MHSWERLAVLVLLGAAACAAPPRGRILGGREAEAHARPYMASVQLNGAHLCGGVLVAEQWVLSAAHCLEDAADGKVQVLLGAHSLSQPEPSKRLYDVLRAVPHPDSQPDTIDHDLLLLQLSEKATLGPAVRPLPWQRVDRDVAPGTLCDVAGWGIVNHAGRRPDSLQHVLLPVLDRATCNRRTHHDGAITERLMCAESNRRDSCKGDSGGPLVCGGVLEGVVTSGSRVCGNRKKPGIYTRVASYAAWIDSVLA

Row | SMILES | IC50
1 | CC(=O)c1cn(CC(=O)N2C[C@H](F)C[C@H]2C(=O)NCc2cccc(Cl)c2F)c2cc(N(CC(=O)N3C[C@H](F)C[C@H]3C(=O)NCc3cccc(Cl)c3F)S(C)(=O)=O)ccc12 [US10660876, Cmpd No. 1] | in the range around 5.5 µM
2 | CC(=O)c1cn(CC(=O)N2C[C@H](F)C[C@H]2C(=O)NCc2nc3ccccc3s2)c2ccc(Nc3cncnc3)cc12 [US10660876, Cmpd No. 16] | in the range around 5.5 µM
3 | CNC(=O)[C@@H]1C[C@@H](F)CN1C(=O)Cn1cc(C(C)=O)c2cc(Nc3cncnc3)ccc21 [US10660876, Cmpd No. 20] | in the range around 5.5 µM
4 | CC(=O)c1cn(CC(=O)N2C[C@H](F)C[C@H]2C(=O)Nc2ccccc2-n2nccc2C)c2ccc(Nc3cncnc3)cc12 [US10660876, Cmpd No. 30] | in the range around 5.5 µM
5 | CC(=O)c1cn(CC(=O)N2C[C@H](F)C[C@H]2C(=O)Nc2ccccc2-c2nc3ccccc3s2)c2ccc(Nc3cncnc3)cc12 [US10660876, Cmpd No. 32] | > 10 µM
6 | CC(=O)c1cn(CC(=O)N2C[C@H](F)C[C@H]2C(=O)Nc2nnc(-c3ccccc3Cl)s2)c2ccc(Nc3cncnc3)cc12 [US10660876, Cmpd No. 34] | in the range around 5.5 µM
7 | CC(=O)c1cn(CC(=O)N2C[C@H](F)C[C@H]2C(=O)N[C@H]2CCCC[C@@H]2O)c2ccc(Nc3cncnc3)cc12 [US10660876, Cmpd No. 36] | in the range around 5.5 µM
8 | CC(=O)c1cn(CC(=O)N2C[C@H](F)C[C@H]2C(=O)Nc2cccc(Cl)c2-n2cncn2)c2ccc(Nc3cncnc3)cc12 [US10660876, Cmpd No. 37] | in the range around 5.5 µM
9 | CC(=O)c1cn(CC(=O)N2C[C@H](F)C[C@H]2C(=O)Nc2ccccc2N2CCOC2=O)c2ccc(Nc3cncnc3)cc12 [US10660876, Cmpd No. 40] | in the range around 5.5 µM
10 | CC(=O)c1cn(CC(=O)N2C[C@H](F)C[C@H]2C(=O)Nc2nc(-c3c(C)nc4sccn34)cs2)c2ccc(Nc3cncnc3)cc12 [US10660876, Cmpd No. 49] | in the range around 5.5 µM
11 | CC(=O)c1cn(CC(=O)N2C[C@H](F)C[C@H]2C(=O)NC2CCc3c(F)ccc(F)c32)c2ccc(Nc3cncnc3)cc12 (some centres undefined) [US10660876, Cmpd No. 51] | in the range around 5.5 µM
12 | CC(=O)c1cn(CC(=O)N2C[C@H](F)C[C@H]2C(=O)Nc2ccc(CN)cc2)c2ccc(Nc3cncnc3)cc12 [US10660876, Cmpd No. 53] | in the range around 5.5 µM
13 | COc1cc(C)cc2c1OCCC2NC(=O)[C@@H]1C[C@@H](F)CN1C(=O)Cn1cc(C(C)=O)c2cc(Nc3cncnc3)ccc21 (some centres undefined) [US10660876, Cmpd No. 54] | in the range around 5.5 µM
14 | CC(=O)c1cn(CC(=O)N2C[C@H](F)C[C@H]2C(=O)Nc2c[nH]nc2-c2ccc(Cl)cc2Cl)c2ccc(Nc3cncnc3)cc12 [US10660876, Cmpd No. 55] | in the range around 5.5 µM
